SMILES strings stand for the structures.

This data set in a line: 1 week stability of primary screen salts at 40° C./75% RH and 80° C. (open vials, XRPD). Format: physicochemical. As for the experimental part:
(open vials). TGA was carried out after the stability studies for samples containing sufficient material.
Consider `C=CC(=O)Nc1cccc(Nc2nc(Nc3ccc(N4CCN(C(C)=O)CC4)cc3OC)ncc2C(F)(F)F)c1.O=S(=O)(O)c1cccc2c(S(=O)(=O)O)cccc12`, for which the “Stability 40° C./75% RH (open conditions)” value (“Stability 40° C./75% RH” below) is “No form change,” and the “Stability 80° C. (open conditions)” value is given as “Possible form change,”.

In the case of `C=CC(=O)Nc1cccc(Nc2nc(Nc3ccc(N4CCN(C(C)=O)CC4)cc3OC)ncc2C(F)(F)F)c1.O=S(=O)(O)c1ccc2ccccc2c1`, the “Stability 40° C./75% RH” value is “No form change, small” and the “Stability 80° C. (open conditions)” value is given as “No form change,”. Turning to `C=CC(=O)Nc1cccc(Nc2nc(Nc3ccc(N4CCN(C(C)=O)CC4)cc3OC)ncc2C(F)(F)F)c1.O=S(=O)(O)c1ccccc1` [Besylate (1 equiv.) Form II], the “Stability 40° C./75% RH” value was “No form change, some” and the “Stability 80° C. (open conditions)” value is “No form change, some”. Consider `C=CC(=O)Nc1cccc(Nc2nc(Nc3ccc(N4CCN(C(C)=O)CC4)cc3OC)ncc2C(F)(F)F)c1.O=S(=O)(O)c1ccccc1` [Besylate (1 equiv.) Form I], for which the “Stability 40° C./75% RH” value is given as “No form change,” and the “Stability 80° C. (open conditions)” value is given as “No form change,”. As for `C=CC(=O)Nc1cccc(Nc2nc(Nc3ccc(N4CCN(C(C)=O)CC4)cc3OC)ncc2C(F)(F)F)c1.O=S(=O)(O)c1ccccc1.O=S(=O)(O)c1ccccc1` [Besylate (2 equiv.) Form II], the “Stability 40° C./75% RH” value is “No form change,” and the “Stability 80° C. (open conditions)” value is “No form change,”. In the case of `C=CC(=O)Nc1cccc(Nc2nc(Nc3ccc(N4CCN(C(C)=O)CC4)cc3OC)ncc2C(F)(F)F)c1.CC1(C)C2CCC1(CS(=O)(=O)O)C(=O)C2` [Camphor-10-sulfonic acid (1 eq.) Form II], the “Stability 80° C. (open conditions)” value is “Converted to Form I,”.

Consider `C=CC(=O)Nc1cccc(Nc2nc(Nc3ccc(N4CCN(C(C)=O)CC4)cc3OC)ncc2C(F)(F)F)c1.CC1(C)C2CCC1(CS(=O)(=O)O)C(=O)C2` [Camphor-10-sulfonic acid (1 eq.) Form I], for which the “Stability 40° C./75% RH” value was “No form change, slight” and the “Stability 80° C. (open conditions)” value is “No form change,”. For `C=CC(=O)Nc1cccc(Nc2nc(Nc3ccc(N4CCN(C(C)=O)CC4)cc3OC)ncc2C(F)(F)F)c1.CC1(C)C2CCC1(CS(=O)(=O)O)C(=O)C2.CC1(C)C2CCC1(CS(=O)(=O)O)C(=O)C2` [Camphor-10-sulfonic acid (2 eq.) Form I], in that order: “Amorphous” and “Amorphous”.

As for `Br.Br.C=CC(=O)Nc1cccc(Nc2nc(Nc3ccc(N4CCN(C(C)=O)CC4)cc3OC)ncc2C(F)(F)F)c1` [HBr (2 eq.) Form II], the “Stability 40° C./75% RH” value was “Changed to Form I,” and the “Stability 80° C. (open conditions)” value is listed as “Potential new form,”. For `C=CC(=O)Nc1cccc(Nc2nc(Nc3ccc(N4CCN(C(C)=O)CC4)cc3OC)ncc2C(F)(F)F)c1.Cl` [Hydrochloride (1 equiv.) Form I], in that order: “No form change,” and “No form change,”. Consider `C=CC(=O)Nc1cccc(Nc2nc(Nc3ccc(N4CCN(C(C)=O)CC4)cc3OC)ncc2C(F)(F)F)c1.Cl.Cl` [Hydrochloride (2 equiv.) Form I], for which the “Stability 40° C./75% RH” value was “No form change,” and the “Stability 80° C. (open conditions)” value is “No form change,”. In the case of `C=CC(=O)Nc1cccc(Nc2nc(Nc3ccc(N4CCN(C(C)=O)CC4)cc3OC)ncc2C(F)(F)F)c1.O=C(O)/C=C\C(=O)O` [Maleate Form III], the “Stability 40° C./75% RH” value is recorded as “No clear form change” and the “Stability 80° C. (open conditions)” value is reported as “No clear form change”.

In the case of `C=CC(=O)Nc1cccc(Nc2nc(Nc3ccc(N4CCN(C(C)=O)CC4)cc3OC)ncc2C(F)(F)F)c1.O=C(O)/C=C\C(=O)O` [Maleate Form II], the “Stability 40° C./75% RH” value was “No form change,” and the “Stability 80° C. (open conditions)” value is “No form change,”. With `C=CC(=O)Nc1cccc(Nc2nc(Nc3ccc(N4CCN(C(C)=O)CC4)cc3OC)ncc2C(F)(F)F)c1.O=C(O)/C=C\C(=O)O` [Maleate Form I], the “Stability 40° C./75% RH” value is given as “No form change,” and the “Stability 80° C. (open conditions)” value is on record as “No form change,”. Take `C=CC(=O)Nc1cccc(Nc2nc(Nc3ccc(N4CCN(C(C)=O)CC4)cc3OC)ncc2C(F)(F)F)c1.CS(=O)(=O)O.CS(=O)(=O)O` [Mesylate Form I]: the “Stability 40° C./75% RH” value was “Gum formed” and the “Stability 80° C. (open conditions)” value was “Amorphous solid”. Taken in the same sequence, the figures for `C=CC(=O)Nc1cccc(Nc2nc(Nc3ccc(N4CCN(C(C)=O)CC4)cc3OC)ncc2C(F)(F)F)c1.O=S(=O)(O)c1ccc2ccccc2c1.O=S(=O)(O)c1ccc2ccccc2c1` [Naphthalene-2-sulfonic acid (2 eq.) Form III] were “Converted to Form II,” and “Converted to Form II,”. For the compound `C=CC(=O)Nc1cccc(Nc2nc(Nc3ccc(N4CCN(C(C)=O)CC4)cc3OC)ncc2C(F)(F)F)c1.O=S(=O)(O)c1ccc2ccccc2c1.O=S(=O)(O)c1ccc2ccccc2c1` [Naphthalene-2-sulfonic acid (2 eq.) Form II], the “Stability 40° C./75% RH” value is given as “No form change,”. For `C=CC(=O)Nc1cccc(Nc2nc(Nc3ccc(N4CCN(C(C)=O)CC4)cc3OC)ncc2C(F)(F)F)c1.O=S(=O)(O)c1ccc2ccccc2c1.O=S(=O)(O)c1ccc2ccccc2c1` [Naphthalene-2-sulfonic acid (2 eq.) Form IV], the “Stability 40° C./75% RH” value is given as “Converted to Form II,” and the “Stability 80° C. (open conditions)” value is reported as “Converted to Form II,”. `C=CC(=O)Nc1cccc(Nc2nc(Nc3ccc(N4CCN(C(C)=O)CC4)cc3OC)ncc2C(F)(F)F)c1.O=S(=O)(O)c1ccc2ccccc2c1.O=S(=O)(O)c1ccc2ccccc2c1` [Naphthalene-2-sulfonic acid (2 eq.) Form I]: the “Stability 40° C./75% RH” value is on record as “No form change, poor” and the “Stability 80° C. (open conditions)” value is reported as “No form change, poor”. In the case of `C=CC(=O)Nc1cccc(Nc2nc(Nc3ccc(N4CCN(C(C)=O)CC4)cc3OC)ncc2C(F)(F)F)c1.O=C(O)C(=O)O` [Oxalate Form II], the “Stability 40° C./75% RH” value is given as “No form change,” and the “Stability 80° C. (open conditions)” value is recorded as “Amorphous brown”.

As to `C=CC(=O)Nc1cccc(Nc2nc(Nc3ccc(N4CCN(C(C)=O)CC4)cc3OC)ncc2C(F)(F)F)c1.O=C(O)C(=O)O` [Oxalate Form I], the “Stability 40° C./75% RH” value is recorded as “No form change,” and the “Stability 80° C. (open conditions)” value is given as “No form change,”.

With `C=CC(=O)Nc1cccc(Nc2nc(Nc3ccc(N4CCN(C(C)=O)CC4)cc3OC)ncc2C(F)(F)F)c1.Cc1ccc(S(=O)(=O)O)cc1` [Tosylate (1 equiv.) Form II], the “Stability 40° C./75% RH” value is “Gum formed” and the “Stability 80° C. (open conditions)” value was “Possible form change,”. For `C=CC(=O)Nc1cccc(Nc2nc(Nc3ccc(N4CCN(C(C)=O)CC4)cc3OC)ncc2C(F)(F)F)c1.Cc1ccc(S(=O)(=O)O)cc1` [Tosylate (1 equiv.) Form I], in that order: “No form change,” and “No form change,”.

The values are drawn from patent publication US10570099B2, “Salts of an epidermal growth factor receptor kinase inhibitor” (Celgene CAR LLC, priority 2012, dated 2020).
